Measurements from PubChem BioAssay AID1963960 (Molecular Pharmacology Branch, DTP, NCI, 2024).

System: MDA-MB-468 spheroids with HUVEC/MSC, viability
Experiment: Anticancer human tumor MDA-MB-468 cell line growth inhibition [PI3K];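 note: spheroids exposed to agents for seven days before readout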;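 for viability, T/C: 100% = DMSO vehicle control viability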
Details: for IC50: curve of first compound; for viability, T/C: stronger effect = lower value
Outline: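 Agents were dosed from a top concentration near clinical Cmax (otherwise 10 microM) in half-log decrements, alone or combined with PI3K inhibitors. The spheroids contain tumor cells plus endothelial (HUVEC) and MSC stroma; viability is measured.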

[1] = second compound 0.00316 µM, first compound 0.0316 µM
[2] = second compound 0.00316 µM, first compound 0.1 µM
[3] = second compound 0.00316 µM, first compound 0.316 µM
[4] = second compound 0.00316 µM, first compound 1 µM
[5] = second compound 0.00316 µM, first compound 3.16 µM
[6] = second compound 0.00316 µM, first compound 10 µM
[7] = second compound 0.01 µM, first compound 0.0316 µM
[8] = second compound 0.01 µM, first compound 0.1 µM
[9] = second compound 0.01 µM, first compound 0.316 µM
[10] = second compound 0.01 µM, first compound 1 µM
[11] = second compound 0.01 µM, first compound 3.16 µM
[12] = second compound 0.01 µM, first compound 10 µM
[13] = second compound 0.0316 µM, first compound 0.0316 µM
[14] = second compound 0.0316 µM, first compound 0.1 µM
[15] = second compound 0.0316 µM, first compound 0.316 µM
[16] = second compound 0.0316 µM, first compound 1 µM
[17] = second compound 0.0316 µM, first compound 3.16 µM
[18] = second compound 0.0316 µM, first compound 10 µM
[19] = second compound 0.1 µM, first compound 0.0316 µM
[20] = second compound 0.1 µM, first compound 0.1 µM
[21] = second compound 0.1 µM, first compound 0.316 µM
[22] = second compound 0.1 µM, first compound 1 µM
[23] = second compound 0.1 µM, first compound 3.16 µM
[24] = second compound 0.1 µM, first compound 10 µM
[25] = second compound 0.316 µM, first compound 0.0316 µM
[26] = second compound 0.316 µM, first compound 0.1 µM
[27] = second compound 0.316 µM, first compound 0.316 µM
[28] = second compound 0.316 µM, first compound 1 µM
[29] = second compound 0.316 µM, first compound 3.16 µM
[30] = second compound 0.316 µM, first compound 10 µM
[31] = second compound 1 µM, first compound 0.0316 µM
[32] = second compound 1 µM, first compound 0.1 µM
[33] = second compound 1 µM, first compound 0.316 µM
[34] = second compound 1 µM, first compound 1 µM
[35] = second compound 1 µM, first compound 3.16 µM
[36] = second compound 1 µM, first compound 10 µM

## C#Cc1c(F)ccc2cc(O)cc(-c3ncc4c(N5CC6CCC(C5)N6)nc(OCC56CCCN5CC(F)C6)nc4c3F)c12 (stereo not drawn) + COc1c(OCCCN2CCOCC2)ccc2c3n(c(=NC(=O)c4cnc(N)nc4)nc12)CCN3
Second compound 0.00316 µM
  IC50: > 10000 nM
Second compound 0.01 µM
  IC50: > 10000 nM
Second compound 0.0316 µM
  IC50: 7830 nM
Second compound 0.1 µM
  IC50: 3670 nM
Second compound 0.316 µM
  IC50: < 31.6 nM
Second compound 1 µM
  IC50: < 31.6 nM
[1]
  viability, T/C: 89.4%
[2]
  viability, T/C: 82.8%
[3]
  viability, T/C: 96.7%
[4]
  viability, T/C: 96.8%
[5]
  viability, T/C: 84.5%
[6]
  viability, T/C: 56.9%
[7]
  viability, T/C: 72.7%
[8]
  viability, T/C: 91.3%
[9]
  viability, T/C: 87%
[10]
  viability, T/C: 87%
[11]
  viability, T/C: 77.7%
[12]
  viability, T/C: 61%
[13]
  viability, T/C: 76.5%
[14]
  viability, T/C: 68.8%
[15]
  viability, T/C: 74.2%
[16]
  viability, T/C: 83.9%
[17]
  viability, T/C: 72.4%
[18]
  viability, T/C: 43.7%
[19]
  viability, T/C: 53.9%
[20]
  viability, T/C: 52%
[21]
  viability, T/C: 61.3%
[22]
  viability, T/C: 61.8%
[23]
  viability, T/C: 52.8%
[24]
  viability, T/C: 24.6%
[25]
  viability, T/C: 25.1%
[26]
  viability, T/C: 23%
[27]
  viability, T/C: 25.9%
[28]
  viability, T/C: 27.2%
[29]
  viability, T/C: 20.1%
[30]
  viability, T/C: 6.75%
[31]
  viability, T/C: 2.58%
[32]
  viability, T/C: 2.36%
[33]
  viability, T/C: 2.21%
[34]
  viability, T/C: 2.61%
[35]
  viability, T/C: 1.99%
[36]
  viability, T/C: 0.74%

## CC(Cn1ccc(-c2ccc(C#N)c(Cl)c2)n1)NC(=O)c1cc(C(C)O)[nH]n1 (stereo not drawn) + COc1c(OCCCN2CCOCC2)ccc2c3n(c(=NC(=O)c4cnc(N)nc4)nc12)CCN3
Second compound 0.00316 µM
  IC50: > 10000 nM
Second compound 0.01 µM
  IC50: > 10000 nM
Second compound 0.0316 µM
  IC50: > 10000 nM
Second compound 0.1 µM
  IC50: > 10000 nM
Second compound 0.316 µM
  IC50: < 31.6 nM
Second compound 1 µM
  IC50: < 31.6 nM
[1]
  viability, T/C: 88.8%
[2]
  viability, T/C: 90.3%
[3]
  viability, T/C: 94.3%
[4]
  viability, T/C: 92.3%
[5]
  viability, T/C: 90.5%
[6]
  viability, T/C: 75.3%
[7]
  viability, T/C: 92.2%
[8]
  viability, T/C: 91.3%
[9]
  viability, T/C: 83.4%
[10]
  viability, T/C: 95.3%
[11]
  viability, T/C: 85.3%
[12]
  viability, T/C: 63.7%
[13]
  viability, T/C: 83.6%
[14]
  viability, T/C: 75.7%
[15]
  viability, T/C: 87.1%
[16]
  viability, T/C: 80.5%
[17]
  viability, T/C: 80.9%
[18]
  viability, T/C: 62.8%
[19]
  viability, T/C: 55.8%
[20]
  viability, T/C: 57%
[21]
  viability, T/C: 60.9%
[22]
  viability, T/C: 59.3%
[23]
  viability, T/C: 56%
[24]
  viability, T/C: 62.3%
[25]
  viability, T/C: 26.9%
[26]
  viability, T/C: 24.4%
[27]
  viability, T/C: 27.3%
[28]
  viability, T/C: 26.1%
[29]
  viability, T/C: 26.7%
[30]
  viability, T/C: 27.2%
[31]
  viability, T/C: 2.86%
[32]
  viability, T/C: 2.48%
[33]
  viability, T/C: 2.64%
[34]
  viability, T/C: 3.21%
[35]
  viability, T/C: 3.72%
[36]
  viability, T/C: 2.3%

## CC1(C)CCC(Nc2ncc(C(F)(F)F)c(-c3c[nH]c4c(P(C)(C)=O)c(C#N)ccc34)n2)CN1 (stereo not drawn) + COc1c(OCCCN2CCOCC2)ccc2c3n(c(=NC(=O)c4cnc(N)nc4)nc12)CCN3
Second compound 0.00316 µM
  IC50: < 31.6 nM
Second compound 0.01 µM
  IC50: < 31.6 nM
Second compound 0.0316 µM
  IC50: < 31.6 nM
Second compound 0.1 µM
  IC50: < 31.6 nM
Second compound 0.316 µM
  IC50: < 31.6 nM
Second compound 1 µM
  IC50: < 31.6 nM
[1]
  viability, T/C: 9.69%
[2]
  viability, T/C: 8.09%
[3]
  viability, T/C: 7.16%
[4]
  viability, T/C: 7.44%
[5]
  viability, T/C: 6.56%
[6]
  viability, T/C: 1.22%
[7]
  viability, T/C: 8.56%
[8]
  viability, T/C: 7.53%
[9]
  viability, T/C: 6.69%
[10]
  viability, T/C: 6.66%
[11]
  viability, T/C: 6.59%
[12]
  viability, T/C: 1.41%
[13]
  viability, T/C: 8.31%
[14]
  viability, T/C: 8.47%
[15]
  viability, T/C: 7.44%
[16]
  viability, T/C: 6.08%
[17]
  viability, T/C: 6.49%
[18]
  viability, T/C: 1.91%
[19]
  viability, T/C: 9.69%
[20]
  viability, T/C: 8.3%
[21]
  viability, T/C: 7.97%
[22]
  viability, T/C: 6.87%
[23]
  viability, T/C: 6%
[24]
  viability, T/C: 2.2%
[25]
  viability, T/C: 8.16%
[26]
  viability, T/C: 6.87%
[27]
  viability, T/C: 6.83%
[28]
  viability, T/C: 5.84%
[29]
  viability, T/C: 4.35%
[30]
  viability, T/C: 1.03%
[31]
  viability, T/C: 4.03%
[32]
  viability, T/C: 3.59%
[33]
  viability, T/C: 3.45%
[34]
  viability, T/C: 4.91%
[35]
  viability, T/C: 3.08%
[36]
  viability, T/C: 0.82%

## Cn1cnc2c(F)c(Nc3ccc(Br)cc3Cl)c(C(=O)NOCCO)cc21 + Cc1nc(NC(=O)N2CCCC2C(N)=O)sc1-c1ccnc(C(C)(C)C(F)(F)F)c1
Second compound 0.0316 µM
  IC50: > 3000 nM
Second compound 0.1 µM
  IC50: 1810 nM
Second compound 0.316 µM
  IC50: 949 nM
Second compound 1 µM
  IC50: 385 nM
Second compound 3.16 µM
  IC50: 18.1 nM
Second compound 10 µM
  IC50: < 9.49 nM
Second compound 0.0316 µM, first compound 0.00949 µM
  viability, T/C: 75.3%
Second compound 0.0316 µM, first compound 0.03 µM
  viability, T/C: 80%
Second compound 0.0316 µM, first compound 0.0949 µM
  viability, T/C: 76.9%
Second compound 0.0316 µM, first compound 0.3 µM
  viability, T/C: 94.1%
Second compound 0.0316 µM, first compound 0.949 µM
  viability, T/C: 69.4%
Second compound 0.0316 µM, first compound 3 µM
  viability, T/C: 50.8%
Second compound 0.1 µM, first compound 0.00949 µM
  viability, T/C: 82.7%
Second compound 0.1 µM, first compound 0.03 µM
  viability, T/C: 77.6%
Second compound 0.1 µM, first compound 0.0949 µM
  viability, T/C: 77.8%
Second compound 0.1 µM, first compound 0.3 µM
  viability, T/C: 86.5%
Second compound 0.1 µM, first compound 0.949 µM
  viability, T/C: 60.7%
Second compound 0.1 µM, first compound 3 µM
  viability, T/C: 41.5%
Second compound 0.316 µM, first compound 0.00949 µM
  viability, T/C: 98.5%
Second compound 0.316 µM, first compound 0.03 µM
  viability, T/C: 82.2%
Second compound 0.316 µM, first compound 0.0949 µM
  viability, T/C: 69.7%
Second compound 0.316 µM, first compound 0.3 µM
  viability, T/C: 74.5%
Second compound 0.316 µM, first compound 0.949 µM
  viability, T/C: 46.9%
Second compound 0.316 µM, first compound 3 µM
  viability, T/C: 34.2%
Second compound 1 µM, first compound 0.00949 µM
  viability, T/C: 66.9%
Second compound 1 µM, first compound 0.03 µM
  viability, T/C: 69.4%
Second compound 1 µM, first compound 0.0949 µM
  viability, T/C: 57.2%
Second compound 1 µM, first compound 0.3 µM
  viability, T/C: 54.2%
Second compound 1 µM, first compound 0.949 µM
  viability, T/C: 40.1%
Second compound 1 µM, first compound 3 µM
  viability, T/C: 25.6%
Second compound 3.16 µM, first compound 0.00949 µM
  viability, T/C: 53.9%
Second compound 3.16 µM, first compound 0.03 µM
  viability, T/C: 47.8%
Second compound 3.16 µM, first compound 0.0949 µM
  viability, T/C: 37.5%
Second compound 3.16 µM, first compound 0.3 µM
  viability, T/C: 33.8%
Second compound 3.16 µM, first compound 0.949 µM
  viability, T/C: 21.2%
Second compound 3.16 µM, first compound 3 µM
  viability, T/C: 12.4%
Second compound 10 µM, first compound 0.00949 µM
  viability, T/C: 28.8%
Second compound 10 µM, first compound 0.03 µM
  viability, T/C: 14.7%
Second compound 10 µM, first compound 0.0949 µM
  viability, T/C: 15.8%
Second compound 10 µM, first compound 0.3 µM
  viability, T/C: 12.1%
Second compound 10 µM, first compound 0.949 µM
  viability, T/C: 7.32%
Second compound 10 µM, first compound 3 µM
  viability, T/C: 4.97%
